Measurements reported in ChEMBL document CHEMBL5550112, “Development of a fluorescent ligand that can illuminate nuclear G-quadruplexes and modulate oncogene expression” (Bioorg Med Chem, 2024).
Active and inactive are the calls of the source. The rule behind the calls is not given here.

Assays:
Quadruplex DNA [1] = assay: Binding affinity to Parallel VAV1 G-quadruplex DNA (unknown origin) assessed as increase in fluorescence intensity at 5 uM by fluorescence spectrophotometric analysis; type: nucleic-acid assay
Albumin = Albumin (Bos taurus, UniProt P02769); assay: Binding affinity to bovine serum albumin assessed as increase in fluorescence intensity at 5 uM by fluorescence spectrophotometric analysis; type: cell-free; details: cattle
Sequence of Albumin (P02769 whole entry): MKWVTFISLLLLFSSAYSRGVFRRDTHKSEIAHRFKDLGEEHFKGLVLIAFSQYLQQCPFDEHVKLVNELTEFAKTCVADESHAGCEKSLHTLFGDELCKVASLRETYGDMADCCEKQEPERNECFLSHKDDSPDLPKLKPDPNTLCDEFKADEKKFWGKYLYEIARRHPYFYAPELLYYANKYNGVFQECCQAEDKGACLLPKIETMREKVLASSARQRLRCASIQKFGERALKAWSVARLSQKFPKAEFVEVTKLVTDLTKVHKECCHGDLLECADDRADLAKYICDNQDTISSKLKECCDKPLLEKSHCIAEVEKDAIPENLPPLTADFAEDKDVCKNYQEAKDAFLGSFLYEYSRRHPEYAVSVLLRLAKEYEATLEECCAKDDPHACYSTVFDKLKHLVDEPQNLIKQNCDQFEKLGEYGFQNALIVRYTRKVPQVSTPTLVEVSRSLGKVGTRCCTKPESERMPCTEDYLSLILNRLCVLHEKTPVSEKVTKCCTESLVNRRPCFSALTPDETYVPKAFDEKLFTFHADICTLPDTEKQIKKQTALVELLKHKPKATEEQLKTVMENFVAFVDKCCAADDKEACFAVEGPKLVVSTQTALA

HEK-293T [2] = assay: Effect on KRAS gene expression in human HEK293T cells co-transfected with KRAS promoter luciferase reporter assessed as decrease in KRAS expression by measuring reduction in firefly luciferase expression at 10 to 20 uM incubated for 24 hrs by firefly luciferase based microplate analysis; type: functional, cell-based; details: dose 10-20 µM
MDA-MB-231 [3] = assay: Induction of cell cycle arrest in human MDA-MB-231 cells assessed as accumulation of cells at G0-G1 phase at 20 uM incubated for 24 hrs by flow cytometry (reference value: 69.6 %); type: functional
HEK-293T [4] = assay: Effect on c-MYC gene expression in human HEK293T cells co-transfected with c-Myc promoter luciferase reporter assessed as decrease in c-MYC expression by measuring reduction in firefly luciferase expression at 10 to 20 uM incubated for 24 hrs by firefly luciferase based microplate analysis; type: functional, cell-based; details: dose 10-20 µM
Quadruplex DNA [5] = assay: Binding affinity to 5'-Cy5-labelled c-MYC G-quadruplex DNA (unknown origin) assessed as dissociation constant by fluorescence quenching analysis; type: nucleic-acid assay
MDA-MB-231 [6] = assay: Induction of apoptosis in human MDA-MB-231 cells assessed as downregulation of c-MYC gene expression at 10 to 20 uM incubated for 24 hrs by RT-PCR analysis; type: functional, cell-based; details: dose 10-20 µM
MDA-MB-231 [7] = assay: Induction of cell cycle arrest in human MDA-MB-231 cells assessed as accumulation of cells at S phase at 10 uM incubated for 24 hrs by flow cytometry (reference value: 13 %); type: functional
Quadruplex DNA [8] = assay: Binding affinity to Parallel c-KIT1 G-quadruplex DNA (unknown origin) assessed as increase in fluorescence intensity at 5 uM by fluorescence spectrophotometric analysis; type: nucleic-acid assay
MDA-MB-231 [9] = assay: Inhibition of colony formation in human MDA-MB-231 cells at 1.5 to 6 uM incubated for 3 days by crystal violet staining based analysis; type: functional, cell-based; details: dose 1.5-6 µM, time 3.0 day
DNA [10] = assay: Binding affinity to Duplex DNA (unknown origin) assessed as increase in fluorescence intensity at 5 uM by fluorescence spectrophotometric analysis; type: nucleic-acid assay
MDA-MB-231 [11] = assay: Induction of cell death in human MDA-MB-231 cells cultured as 3D tumor spheroids assessed as increase in red fluorescence intensity at 20 uM incubated for 7 days by propidium iodide staining based imaging analysis; type: functional; details: time 7.0 day
Quadruplex DNA [12] = assay: Displacement of […] from G-quadruplex DNA in human MDA-MB-231 cells assessed as increase in fluorescence at 2 uM preincubated for 30 mins followed by PDS addition and measured after 20 mins by Hoechst 33342 staining based confocal microscopic analysis; type: cell-based; details: time 50.0 min
Quadruplex DNA [13] = assay: Binding affinity to G-quadruplex DNA in human MDA-MB-231 cells assessed as increase in fluorescence at 2 uM incubated for 30 mins by DNase I digestion based confocal microscopic analysis; type: cell-based
MDA-MB-231 [14] = assay: Induction of cell cycle arrest in human MDA-MB-231 cells assessed as accumulation of cells at sub-G1 phase at 10 uM incubated for 24 hrs by flow cytometry (reference value: 0.6 %); type: functional
Quadruplex DNA [15] = assay: Binding affinity to G-quadruplex DNA in human MDA-MB-231 cells at 2 uM incubated for 30 mins by Hoechst 33342 staining based confocal microscopic analysis; type: cell-based
DNA [16] = assay: Binding affinity to Duplex DNA (unknown origin) assessed as fluorescence quantum yield by fluorescence spectrophotometric analysis; type: nucleic-acid assay
DNA [17] = assay: Binding affinity to Duplex DNA (unknown origin) assessed as hypochromic red shift at 5 uM by absorption spectra analysis; type: nucleic-acid assay
Quadruplex DNA [18] = assay: Binding affinity to Parallel EAD G-quadruplex DNA (unknown origin) assessed as increase in fluorescence intensity at 5 uM by fluorescence spectrophotometric analysis; type: nucleic-acid assay
Quadruplex DNA [19] = assay: Binding affinity to Parallel PS2M G-quadruplex DNA (unknown origin) assessed as increase in fluorescence intensity at 5 uM by fluorescence spectrophotometric analysis; type: nucleic-acid assay
Quadruplex DNA [20] = assay: Binding affinity to Antiparallel c-KIT G-quadruplex DNA (unknown origin) assessed as increase in fluorescence intensity at 5 uM by fluorescence spectrophotometric analysis; type: nucleic-acid assay
MDA-MB-231 [21] = assay: Inhibition of cell migration in human MDA-MB-231 cells at 10 to 20 uM incubated for 24 hrs by reverse-phase microscopy based scratch wound healing assay; type: functional; details: dose 10-20 µM
Quadruplex DNA [22] = assay: Binding affinity to KRAS G-quadruplex DNA (unknown origin) assessed as dissociation constant by fluorescence spectrophotometric analysis; type: nucleic-acid assay
Quadruplex DNA [23] = assay: Binding affinity to KRAS G-quadruplex DNA (unknown origin) assessed as increase in fluorescence by measuring red shift at 5 uM by fluorescence titration spectra analysis; type: nucleic-acid assay
Quadruplex DNA [24] = assay: Binding affinity to c-MYC G-quadruplex DNA (unknown origin) assessed as fluorescence quantum yield by fluorescence spectrophotometric analysis; type: nucleic-acid assay
Quadruplex DNA [25] = assay: Binding affinity to Antiparallel HRAS G-quadruplex DNA (unknown origin) assessed as increase in fluorescence intensity at 5 uM by fluorescence spectrophotometric analysis; type: nucleic-acid assay
MDA-MB-231 [26] = assay: Induction of apoptosis in human MDA-MB-231 cells assessed as downregulation of PARP protein expression at 10 to 20 uM incubated for 24 hrs by Western blot analysis; type: functional, cell-based; details: dose 10-20 µM
MDA-MB-231 [27] = assay: Induction of apoptosis in human MDA-MB-231 cells assessed as downregulation of KRAS protein expression at 10 to 20 uM incubated for 24 hrs by Western blot analysis; type: functional, cell-based; details: dose 10-20 µM
Quadruplex DNA [28] = assay: Stabilization of FAM/TAMRA-labelled KRAS G-quadruplex DNA (unknown origin) assessed as change in melting temperature in presence of duplex DNA by FRET assay; type: nucleic-acid assay
Quadruplex DNA [29] = assay: Binding affinity to Antiparallel ODN G-quadruplex DNA (unknown origin) assessed as increase in fluorescence intensity at 5 uM by fluorescence spectrophotometric analysis; type: nucleic-acid assay
MDA-MB-231 [30] = assay: Induction of cell cycle arrest in human MDA-MB-231 cells assessed as accumulation of cells at S phase at 20 uM incubated for 24 hrs by flow cytometry (reference value: 13 %); type: functional
Quadruplex DNA [31] = assay: Binding affinity to 5'-Cy5-labelled c-MYC G-quadruplex DNA (unknown origin) assessed as decrease in Cy5 fluorescence upto 5 uM by fluorescence quenching analysis; type: nucleic-acid assay
DNA [32] = assay: Binding affinity to Duplex DNA (unknown origin) assessed as dissociation constant by fluorescence spectrophotometric analysis; type: nucleic-acid assay
MDA-MB-231 [33] = assay: Induction of cell cycle arrest in human MDA-MB-231 cells assessed as accumulation of cells at G0-G1 phase at 15 uM incubated for 24 hrs by flow cytometry (reference value: 69.6 %); type: functional

Question: For CCn1c2ccccc2c2cc(/C=C/c3sc4ccccc4[n+]3C)ccc21.[I-], which Activity (Quadruplex DNA [1]) is on record?
Answer: Its Activity is “Active”.

Question: What about the Activity (Albumin) of the same compound?
Answer: The Activity was “Not Active”.

Question: What about the Activity (HEK-293T [2]) of the same compound?
Answer: The Activity was “Active”.

Question: And the Activity (MDA-MB-231 [3])?
Answer: The Activity was 28.3%.

Question: What about the Activity (HEK-293T [4]) of the same compound?
Answer: The Activity was “Active”.

Question: And the Kd (Quadruplex DNA [5])?
Answer: The Kd was 1.1 µM.

Question: What about the Activity (MDA-MB-231 [6]) of the same compound?
Answer: Its Activity is “Active”.

Question: What about the Activity (MDA-MB-231 [7]) of the same compound?
Answer: Its Activity is 14.5%.

Question: What about the Activity (Quadruplex DNA [8]) of the same compound?
Answer: The Activity was “Active”.

Question: And the inhibition (MDA-MB-231 [9])?
Answer: The inhibition was “Active”.

Question: And the Activity (DNA [10])?
Answer: The Activity was “inactive”.

Question: And the Activity (MDA-MB-231 [11])?
Answer: The Activity was “Active”.

Question: What about the Activity (Quadruplex DNA [12]) of the same compound?
Answer: Its Activity is “inactive”.

Question: What about the Activity (Quadruplex DNA [13]) of the same compound?
Answer: The Activity was “inactive”.

Question: What about the Activity (MDA-MB-231 [14]) of the same compound?
Answer: Its Activity is 3%.

Question: What about the Activity (Quadruplex DNA [15]) of the same compound?
Answer: The Activity was “Active”.

Question: What about the Activity (DNA [16]) of the same compound?
Answer: The Activity was 0.03.

Question: And the Activity (DNA [17])?
Answer: Its Activity is “Active”.

Question: And the Activity (Quadruplex DNA [18])?
Answer: Its Activity is “Active”.

Question: What about the Activity (Quadruplex DNA [19]) of the same compound?
Answer: The Activity was “Active”.

Question: And the Activity (Quadruplex DNA [20])?
Answer: Its Activity is “Active”.

Question: What about the inhibition (MDA-MB-231 [21]) of the same compound?
Answer: Its inhibition is “Active”.

Question: What about the Kd (Quadruplex DNA [22]) of the same compound?
Answer: Its Kd is 0.5 µM.

Question: What about the Activity (Quadruplex DNA [23]) of the same compound?
Answer: Its Activity is “Active”.

Question: What about the Activity (Quadruplex DNA [24]) of the same compound?
Answer: Its Activity is 0.3.

Question: What about the Activity (Quadruplex DNA [25]) of the same compound?
Answer: Its Activity is “Active”.

Question: What about the Activity (MDA-MB-231 [26]) of the same compound?
Answer: Its Activity is “Active”.

Question: What about the Activity (MDA-MB-231 [27]) of the same compound?
Answer: The Activity was “Active”.

Question: What about the ΔTm (Quadruplex DNA [28]) of the same compound?
Answer: The ΔTm was 14 °C.

Question: What about the Activity (Quadruplex DNA [29]) of the same compound?
Answer: The Activity was “Active”.

Question: What about the Activity (MDA-MB-231 [30]) of the same compound?
Answer: The Activity was 8.6%.

Question: And the Activity (Quadruplex DNA [31])?
Answer: Its Activity is “Active”.

Question: What about the Kd (DNA [32]) of the same compound?
Answer: The Kd was 5.3 µM.

Question: What about the Activity (MDA-MB-231 [33]) of the same compound?
Answer: Its Activity is 47.2%.
